Measured values as given in US20190284168A1, “PYRAZOLE DERIVATIES AS SGC STIMULATORS” (IRONWOOD PHARMACEUTICALS, INC., priority 2014, published 2019).

Molecular target: T1, soluble guanylate cyclase (sGC) (Homo sapiens, UniProt Q02108+Q02153)
T1 construct: endogenously expressing soluble guanylate cyclase (sGC); endogenous in cells; host or cells: HEK293
T1 sequence (Q02153 1-619): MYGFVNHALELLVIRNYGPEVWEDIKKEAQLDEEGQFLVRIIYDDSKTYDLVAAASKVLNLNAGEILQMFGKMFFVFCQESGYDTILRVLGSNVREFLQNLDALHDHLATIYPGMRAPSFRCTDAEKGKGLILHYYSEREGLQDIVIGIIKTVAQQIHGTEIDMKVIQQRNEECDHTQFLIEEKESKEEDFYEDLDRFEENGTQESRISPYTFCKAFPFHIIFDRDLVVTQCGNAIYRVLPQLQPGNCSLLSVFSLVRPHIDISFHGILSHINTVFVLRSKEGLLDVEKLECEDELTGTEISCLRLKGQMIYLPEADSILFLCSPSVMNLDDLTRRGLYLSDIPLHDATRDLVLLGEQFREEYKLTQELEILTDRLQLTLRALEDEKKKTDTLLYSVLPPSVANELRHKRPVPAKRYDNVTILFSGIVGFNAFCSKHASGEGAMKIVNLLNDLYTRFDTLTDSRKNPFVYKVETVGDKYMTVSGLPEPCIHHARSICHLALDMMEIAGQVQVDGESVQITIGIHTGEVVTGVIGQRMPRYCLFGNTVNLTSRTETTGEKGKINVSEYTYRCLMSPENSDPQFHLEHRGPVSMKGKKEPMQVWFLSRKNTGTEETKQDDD
T1 sequence (Q02108 1-690): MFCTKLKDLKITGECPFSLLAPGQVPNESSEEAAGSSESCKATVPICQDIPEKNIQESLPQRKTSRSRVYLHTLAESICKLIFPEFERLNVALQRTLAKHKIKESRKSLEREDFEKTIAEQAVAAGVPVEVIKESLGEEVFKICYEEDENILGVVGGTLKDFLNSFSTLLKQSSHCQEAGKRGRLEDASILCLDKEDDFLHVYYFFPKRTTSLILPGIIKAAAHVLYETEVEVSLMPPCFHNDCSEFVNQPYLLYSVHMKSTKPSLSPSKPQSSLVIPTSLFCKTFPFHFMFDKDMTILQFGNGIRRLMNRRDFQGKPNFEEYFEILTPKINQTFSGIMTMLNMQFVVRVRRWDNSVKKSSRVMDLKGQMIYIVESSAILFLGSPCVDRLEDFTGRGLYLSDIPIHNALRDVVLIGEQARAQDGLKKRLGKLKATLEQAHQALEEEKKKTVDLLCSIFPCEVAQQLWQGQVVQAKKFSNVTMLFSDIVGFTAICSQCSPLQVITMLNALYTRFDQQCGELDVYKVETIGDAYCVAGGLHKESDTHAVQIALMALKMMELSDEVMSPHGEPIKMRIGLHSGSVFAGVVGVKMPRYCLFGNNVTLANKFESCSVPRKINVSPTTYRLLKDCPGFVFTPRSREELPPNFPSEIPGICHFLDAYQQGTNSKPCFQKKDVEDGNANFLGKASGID
Test: sGC-HEK-cGMP assay with LC/MS detection
Type: cell-based
Conditions: HEK293 whole cells, LC/MS detection of cGMP, 10 μM DETA-NONOate; 50% of high control response (30 μM Compound Y); read-out: Absolute EC50 (nM)- binned (~)
Experimental: Human embryonic kidney cells (HEK293), endogenously expressing soluble guanylate cyclase (sGC), were used to evaluate the activity of test compounds. Compounds stimulating the sGC enzyme should cause an increase in the intracellular concentration of cGMP. HEK 293 cells were seeded in Dulbecco's Modification of Eagle's Medium supplemented with fetal bovine serum (10% final) and penicillin (100 U/mL)/streptomycin (100 μg/mL) in a 50 μL volume at a density of 1.5×10^4 cells/well in a poly-D-lysine coated 384 well flat bottom plate. Cells were incubated overnight at 37° C. in a humidified chamber with 5% CO2. Medium was aspirated and cells were washed with 1× Hank's Buffered Saline Salt Solution (50 μL). Cells were then incubated for 15 minutes at 37° C. with 50 μL of a 0.5 mM 3-isobutyl-1-methylxanthine (IBMX) solution.
were then added to the assay mixture and the resulting mixture incubated at 37° C. for 20 minutes. After the 20 minute incubation, the assay mixture was aspirated and 10% acetic acid containing 150 ng/mL+3-cGMP (internal standard for LCMS) (50 μL) was added to the cells. The plate was incubated at 4° C. for 30 minutes in the acetic acid solution to stop the reaction and lyse the cells. The plates were then centrifuged at 1,000 g for 3 minutes at 4° C. and the supernatant transferred to a clean reaction plate for LCMS analysis.
cGMP concentrations were determined from each sample using the LCMS conditions below (Table 2) and calculated standard curve.
Data were fit using a 4-parameter fit (log(agonist) vs. response—variable slope) using GraphPad Prism Software v.5. n=2 for all compounds. […] Compounds failing to elicit a minimum response of 50% are reported as >30 μM.

SMILES	EC50
CC(=O)c1cc(-c2ncc(F)c(O)n2)nn1Cc1cccc(F)c1F [Compound 83]	> 1000 nM
CC(=O)c1cc(-c2ncc(F)c(NCC(=O)O)n2)nn1Cc1ccccc1F [Compound 86]	> 1000 nM
C[C@](N)(CNc1nc(-c2cc(-c3ccon3)n(Cc3ccccc3F)n2)ncc1F)C(F)(F)F [Compound 108]	100 to 1000 nM

Molecular target: T2, sGC enzyme (Homo sapiens, UniProt Q02108+Q02153)
T2 construct: host or cells: HEK293 cells expressing GloSensor 40F cGMP
T2 sequence (Q02153 1-619): T1 sequence (Q02153 1-619)
T2 sequence (Q02108 1-690): T1 sequence (Q02108 1-690)
Test: cGMP GloSensor cell-based assay, 384-well format
Conditions: read-out: sGC_HEK_GloSensor EC50/IC50 Abs (Norm) (nM) Binned (~)
From the text: Human embryonic kidney cells (HEK293) cells expressing GloSensor™ 40F cGMP (Part No: CS182801, Promega) were used to evaluate the activity of test compounds. The luminescent biosensors (engineered luciferase) that were incorporated into these cells detect cGMP formed by the compounds stimulating the sGC enzyme and emit luminescence.
cGMP GloSensor cells were maintained in Dulbecco's Modification of Eagle's Medium (DMEM) supplemented with fetal bovine serum (FBS) (10% final) and hygromycine (200 ug/ml). The day before assay, cells were plated in DMEM with 10% FBS in a 50 μL volume at a density of 1.5×10^4 cells/well in a poly-D-lysine coated 384-well flat white-bottom plate (Corning Cat No 35661). Cells were incubated overnight at 37° C. in a humidified chamber with 5% CO2. The next day, medium was removed and cells were replaced with 40 ul/well of GloSensor™, 2 mM (Promega Cat No E1291). Cells were treated for 90 minutes at 25° C. to allow the substrate to equilibrate in the cells. Test compounds and Diethylenetriamine NONOate (DETA-NONOate) was diluted to 3 mM (20×) in serum-free CO2 independent medium and serially diluted at 4× dilutions to create 5× dose curve from which 10 ul was added to the wells (x μM concentration for test compound solution and 10 μM concentration for DETA-NONOate solution; wherein x is one of the following final concentrations). • 30000 nM • 7500 nM • 1875 nM • 468.75 nM • 117.19 nM • 29.29 nM • 7.32 nM • 1.83 nM • 0.46 nM • 0.114 nM • 0.029 nM
For the kinetics studies, luminescense was measured right away for 0.2 sec per well with Envision (Perkin Elmer model No). For endpoint SAR screening, data were collected after 55 min incubation at room temperature.
Data analysis was carried out as indicated above in Example 2A.

SMILES	EC50
CC(=O)c1cc(-c2ncc(F)c(NCC(F)(F)F)n2)nn1Cc1ccccc1F [Compound 204]	100 to 1000 nM
Cc1ccc(Cn2nc(-c3ncc(F)c(O)n3)cc2-c2ccon2)c(F)c1 [Compound 208]	100 to 1000 nM
CCOC(=O)C(C)(C)c1nnc(-c2cc(-c3ccon3)n(Cc3ccccc3F)n2)nc1N [Compound 209]	> 1000 nM
Oc1nc(-c2cc(-c3ccon3)n(Cc3ccno3)n2)ncc1F [Compound 211]	> 1000 nM
Cn1nccc1Cn1nc(-c2ncc(F)c(O)n2)cc1-c1ccon1 [Compound 212]	> 1000 nM
Oc1nc(-c2cc(-c3ccon3)n(Cc3ccc(F)cc3)n2)ncc1F [Compound 213]	100 to 1000 nM
Oc1nc(-c2cc(-c3ccon3)n(CC(F)(F)F)n2)ncc1F [Compound 214]	> 1000 nM
Oc1nc(-c2cc(-c3ccon3)n(Cc3ncccn3)n2)ncc1F [Compound 215]	> 1000 nM
Oc1nc(-c2cc(-c3ccon3)n(Cc3cncnc3)n2)ncc1F [Compound 216]	> 1000 nM

Molecular target: T3, human recombinant soluble guanylate cyclase enzyme α1β1 (Homo sapiens, UniProt Q02108+Q02153)
T3 construct: purchased Enzo Life Sciences ALX-201-177
T3 sequence (Q02108 1-690): T1 sequence (Q02108 1-690)
T3 sequence (Q02153 1-619): T1 sequence (Q02153 1-619)
Test: Purified human recombinant sGC α1β1 enzyme assay in the presence of DETA-NONOate (cGMP HTRF)
Type: biochemical
Conditions: 30 uM DETA NONOate; 50% of maximal response of 30 uM Compound Y; read-out: sGC_Enz_HTRF_a1b1 EC50/IC50 Abs (Norm) (nM) Binned
Experimental: Purified human recombinant soluble guanylate cyclase enzyme α1β1 (h sGC) obtained from Enzo Life Sciences (P/N: ALX-201-177) was used to evaluate the activity of test compounds. The assay reactions contained 0.1 M Tris (pH 8.0), 0.5 mg/mL BSA, 2 mM DTT, 4 mM MgCl2, 30 uM DETA NONOate (Enzo Life Science P/N: ALX-430-014), and 12.5 ng/ml human soluble guanylate cyclase enzyme. […] Guanosine 5'-triphosphate (Sigma-Aldrich P/N: […]) was added to a final concentration of 300 μM and enzyme reactions were incubated (100 μL, 384-well plate format) at 37° C. for 20 minutes. The controls contained 3% DMSO (low control), or 30 uM of Compound Y (high control). After the 20 minute incubation, the reaction was stopped with the addition of 100 μL of ice cold 20% acetic acid. cGMP concentrations in all samples were determined using the cGMP HTRF (Cisbio P/N: 62GM2PEC) assay per manufacturer's instructions. A cGMP standard curve was fit using a 4-parameter fit (log(inhibitor) vs. response-variable slope) using GraphPad Prism Software v.6. Samples were diluted appropriately to ensure that values fell within the linear range of the standard curve. Data were fit using a 4-parameter fit (log(agonist) vs. response-variable slope) using GraphPad Prism Software v.6. The EC50 was interpolated from the curve fit and is defined as the concentration at which the compound elicits 50% of the maximal response of the 30 uM of Compound Y, the high control compound.

SMILES	EC50
CC(=O)c1cc(-c2ncc(F)c(O)n2)nn1Cc1cccc(F)c1F [Compound 83]	≤ 1000 nM
CC(=O)c1cc(-c2ncc(F)c(NCC(=O)O)n2)nn1Cc1ccccc1F [Compound 86]	≤ 1000 nM
C[C@](N)(CNc1nc(-c2cc(-c3ccon3)n(Cc3ccccc3F)n2)ncc1F)C(F)(F)F [Compound 108]	100 to 1000 nM

Tested on: lambs with acute pulmonary hypertension
Test: not given
Conditions: after inhaling microparticles, combined with iNO; cited from earlier work

SMILES	magnitude and duration of pulmonary vasodilation induced by iNO
Nc1nc(-c2nn(Cc3ccccc3F)c3ncccc23)nc(N)c1N1CCOCC1 [BAY 41-8543]	augmented

Same assay, conditions: inhaled microparticles after ODQ; cited from earlier work

SMILES	pulmonary vasodilation and transpulmonary cGMP release after treatment with ODQ
O=C(O)CCCCN(CCc1ccccc1OCc1ccc(CCc2ccccc2)cc1)Cc1ccc(C(=O)O)cc1 [BAY 58-2667]	greatly enhanced

Same assay, conditions: inhaled microparticles, awake lambs, U-46619 infusion; cited from earlier work

SMILES	effect on mean arterial pressure	pulmonary vasodilation	transpulmonary cGMP release
Nc1nc(-c2nn(Cc3ccccc3F)c3ncccc23)ncc1C1CC1 [BAY 41-2272]	without significant effect	dose dependent pulmonary vasodilation	increased
Nc1nc(-c2nn(Cc3ccccc3F)c3ncccc23)nc(N)c1N1CCOCC1 [BAY 41-8543]	without significant effect	dose dependent pulmonary vasodilation	increased
O=C(O)CCCCN(CCc1ccccc1OCc1ccc(CCc2ccccc2)cc1)Cc1ccc(C(=O)O)cc1 [BAY 58-2667]	without significant effect	dose dependent pulmonary vasodilation	increased

Same assay, conditions: inhaled microparticles, awake lambs; cited from earlier work

SMILES	systemic arterial oxygenation
Nc1nc(-c2nn(Cc3ccccc3F)c3ncccc23)nc(N)c1N1CCOCC1 [BAY 41-8543]	increased
O=C(O)CCCCN(CCc1ccccc1OCc1ccc(CCc2ccccc2)cc1)Cc1ccc(C(=O)O)cc1 [BAY 58-2667]	increased

Same assay, conditions: intravenous administration; cited from earlier work

SMILES	pulmonary vasodilator effect of iNO
O=c1onc2cnc3ccccc3n12 [ODQ, 1H-[1,2,4]oxadiazolo[4,3-a]quinoxalin-1-one]	markedly reduced
